Publication PMC7026418, “The kinase polypharmacology landscape of clinical PARP inhibitors” (Scientific Reports, 2020)
Like-named read-outs stand apart in the source and are kept apart here. Blank lines part the entries; values can stand above or below the molecule they belong to.

Legend:
Assay in all cases: biochemical
CDK4-cyclinD3 = CDK4-cyclinD3 (Homo sapiens, UniProt P11802); set-up: cyclinD3; DiscoveRx KINOMEscan active site-directed competition binding; percent of control kinase bound to immobilised ligand
PIK3CA(E545K) = PIK3CA(E545K) (Homo sapiens, UniProt P42336, E545K); set-up: DiscoveRx KINOMEscan active site-directed competition binding; percent of control kinase bound to immobilised ligand
CDKL1 = CDKL1 (Homo sapiens, UniProt Q00532); set-up: DiscoveRx KINOMEscan active site-directed competition binding; percent of control kinase bound to immobilised ligand
CDKL1, sequence (Q00532 whole entry): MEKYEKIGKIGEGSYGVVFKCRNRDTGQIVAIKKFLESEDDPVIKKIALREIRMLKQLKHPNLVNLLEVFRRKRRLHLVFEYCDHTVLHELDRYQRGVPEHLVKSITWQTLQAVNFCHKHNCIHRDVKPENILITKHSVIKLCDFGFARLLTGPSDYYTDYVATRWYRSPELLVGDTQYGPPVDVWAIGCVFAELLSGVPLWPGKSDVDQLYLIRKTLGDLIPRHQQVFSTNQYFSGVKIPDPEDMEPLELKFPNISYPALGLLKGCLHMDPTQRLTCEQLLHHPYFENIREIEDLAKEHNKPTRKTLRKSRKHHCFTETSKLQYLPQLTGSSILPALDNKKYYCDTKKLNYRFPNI

PIP5K2C = molecular target: T1, PIP5K2C (Homo sapiens, UniProt Q8TBX8); set-up: DiscoveRx KINOMEscan active site-directed competition binding; percent of control kinase bound to immobilised ligand
T1 construct: gene PIP4K2C
T1 sequence (Q8TBX8 1-421): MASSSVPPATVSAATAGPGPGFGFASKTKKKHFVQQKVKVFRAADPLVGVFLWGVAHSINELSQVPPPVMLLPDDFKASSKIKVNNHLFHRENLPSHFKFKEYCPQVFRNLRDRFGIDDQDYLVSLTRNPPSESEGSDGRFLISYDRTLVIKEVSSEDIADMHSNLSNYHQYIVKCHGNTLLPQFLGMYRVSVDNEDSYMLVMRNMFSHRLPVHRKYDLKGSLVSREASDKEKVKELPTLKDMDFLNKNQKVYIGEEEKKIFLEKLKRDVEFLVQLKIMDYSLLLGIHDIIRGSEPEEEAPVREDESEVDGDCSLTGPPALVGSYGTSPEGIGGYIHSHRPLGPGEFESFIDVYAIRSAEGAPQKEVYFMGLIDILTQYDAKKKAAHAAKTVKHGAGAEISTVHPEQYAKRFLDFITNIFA

FLT1 = FLT1 (Homo sapiens, UniProt P17948); set-up: DiscoveRx KINOMEscan active site-directed competition binding; percent of control kinase bound to immobilised ligand
EGFR(G719C) = EGFR(G719C) (Homo sapiens, UniProt P00533, G719C); set-up: DiscoveRx KINOMEscan active site-directed competition binding; percent of control kinase bound to immobilised ligand
ABL1-nonphosphorylated = molecular target: T2, ABL1-nonphosphorylated (Homo sapiens, UniProt P00519); set-up: DiscoveRx KINOMEscan active site-directed competition binding; percent of control kinase bound to immobilised ligand
T2 construct: nonphosphorylated
T2 sequence (P00519 whole entry): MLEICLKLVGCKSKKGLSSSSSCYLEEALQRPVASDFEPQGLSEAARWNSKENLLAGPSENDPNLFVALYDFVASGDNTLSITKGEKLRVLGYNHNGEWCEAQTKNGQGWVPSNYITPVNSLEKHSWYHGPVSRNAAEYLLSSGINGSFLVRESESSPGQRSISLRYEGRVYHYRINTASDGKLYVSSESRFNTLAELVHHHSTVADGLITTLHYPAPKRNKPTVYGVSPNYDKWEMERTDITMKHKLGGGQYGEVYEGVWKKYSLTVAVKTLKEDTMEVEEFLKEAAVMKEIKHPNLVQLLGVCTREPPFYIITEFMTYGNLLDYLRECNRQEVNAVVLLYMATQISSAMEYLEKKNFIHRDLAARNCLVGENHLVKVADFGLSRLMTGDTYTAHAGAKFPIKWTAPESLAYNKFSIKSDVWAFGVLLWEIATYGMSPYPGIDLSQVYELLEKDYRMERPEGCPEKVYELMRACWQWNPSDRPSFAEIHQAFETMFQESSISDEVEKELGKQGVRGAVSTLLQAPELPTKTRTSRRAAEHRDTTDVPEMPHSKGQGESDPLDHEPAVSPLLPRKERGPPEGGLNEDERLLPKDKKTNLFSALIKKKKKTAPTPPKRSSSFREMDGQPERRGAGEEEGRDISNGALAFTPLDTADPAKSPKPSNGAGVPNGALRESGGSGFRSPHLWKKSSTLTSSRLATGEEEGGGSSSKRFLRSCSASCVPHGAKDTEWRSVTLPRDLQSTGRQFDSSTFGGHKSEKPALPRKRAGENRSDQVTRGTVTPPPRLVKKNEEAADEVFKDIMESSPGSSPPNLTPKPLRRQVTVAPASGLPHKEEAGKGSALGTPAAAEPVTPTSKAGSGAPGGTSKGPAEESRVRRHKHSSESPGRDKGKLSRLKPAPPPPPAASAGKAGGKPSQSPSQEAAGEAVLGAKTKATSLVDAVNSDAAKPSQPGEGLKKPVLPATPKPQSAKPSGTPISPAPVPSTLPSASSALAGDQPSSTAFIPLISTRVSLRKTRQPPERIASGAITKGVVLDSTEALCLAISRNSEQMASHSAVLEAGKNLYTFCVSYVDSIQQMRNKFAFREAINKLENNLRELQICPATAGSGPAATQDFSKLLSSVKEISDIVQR

MKK7 = molecular target: T3, MKK7 (Homo sapiens, UniProt O14733); set-up: DiscoveRx KINOMEscan active site-directed competition binding; percent of control kinase bound to immobilised ligand
T3 construct: gene MAP2K7
T3 sequence (O14733 1-419): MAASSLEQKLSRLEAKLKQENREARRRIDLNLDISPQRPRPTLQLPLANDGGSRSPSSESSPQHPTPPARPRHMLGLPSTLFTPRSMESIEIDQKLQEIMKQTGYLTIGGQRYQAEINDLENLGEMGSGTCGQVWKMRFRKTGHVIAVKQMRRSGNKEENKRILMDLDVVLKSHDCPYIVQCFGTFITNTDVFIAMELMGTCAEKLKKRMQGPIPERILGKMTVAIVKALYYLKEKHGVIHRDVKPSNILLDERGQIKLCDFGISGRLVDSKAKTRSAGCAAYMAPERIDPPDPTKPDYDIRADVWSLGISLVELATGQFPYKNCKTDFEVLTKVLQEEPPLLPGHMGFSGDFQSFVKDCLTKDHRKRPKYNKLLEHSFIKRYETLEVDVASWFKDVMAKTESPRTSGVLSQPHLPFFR

[1] = molecular target: T4, RSK1(Kin.Dom.2-C-terminal) (Homo sapiens, UniProt Q15418); set-up: DiscoveRx KINOMEscan active site-directed competition binding; percent of control kinase bound to immobilised ligand
T4 construct: gene RPS6KA1; Kin.Dom.2-C-terminal

SgK110 = molecular target: T5, SgK110 (Homo sapiens, UniProt P0C264); set-up: DiscoveRx KINOMEscan active site-directed competition binding; percent of control kinase bound to immobilised ligand
T5 construct: gene SBK3
T5 sequence (P0C264 1-359): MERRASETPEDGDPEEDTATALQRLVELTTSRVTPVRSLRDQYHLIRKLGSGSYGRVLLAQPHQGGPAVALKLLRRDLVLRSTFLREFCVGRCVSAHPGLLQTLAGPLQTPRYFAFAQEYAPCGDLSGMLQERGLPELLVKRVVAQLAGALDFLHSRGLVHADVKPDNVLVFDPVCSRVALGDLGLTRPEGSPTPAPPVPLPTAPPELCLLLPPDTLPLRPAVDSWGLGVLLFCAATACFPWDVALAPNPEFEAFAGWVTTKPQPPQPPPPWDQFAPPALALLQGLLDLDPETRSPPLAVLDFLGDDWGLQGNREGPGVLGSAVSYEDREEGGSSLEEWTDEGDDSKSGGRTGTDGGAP

[2] = molecular target: T6, TYK2(JH2domain-pseudokinase) (Homo sapiens, UniProt P29597); set-up: DiscoveRx KINOMEscan active site-directed competition binding; percent of control kinase bound to immobilised ligand
T6 construct: JH2domain-pseudokinase
T6 sequence (P29597 whole entry): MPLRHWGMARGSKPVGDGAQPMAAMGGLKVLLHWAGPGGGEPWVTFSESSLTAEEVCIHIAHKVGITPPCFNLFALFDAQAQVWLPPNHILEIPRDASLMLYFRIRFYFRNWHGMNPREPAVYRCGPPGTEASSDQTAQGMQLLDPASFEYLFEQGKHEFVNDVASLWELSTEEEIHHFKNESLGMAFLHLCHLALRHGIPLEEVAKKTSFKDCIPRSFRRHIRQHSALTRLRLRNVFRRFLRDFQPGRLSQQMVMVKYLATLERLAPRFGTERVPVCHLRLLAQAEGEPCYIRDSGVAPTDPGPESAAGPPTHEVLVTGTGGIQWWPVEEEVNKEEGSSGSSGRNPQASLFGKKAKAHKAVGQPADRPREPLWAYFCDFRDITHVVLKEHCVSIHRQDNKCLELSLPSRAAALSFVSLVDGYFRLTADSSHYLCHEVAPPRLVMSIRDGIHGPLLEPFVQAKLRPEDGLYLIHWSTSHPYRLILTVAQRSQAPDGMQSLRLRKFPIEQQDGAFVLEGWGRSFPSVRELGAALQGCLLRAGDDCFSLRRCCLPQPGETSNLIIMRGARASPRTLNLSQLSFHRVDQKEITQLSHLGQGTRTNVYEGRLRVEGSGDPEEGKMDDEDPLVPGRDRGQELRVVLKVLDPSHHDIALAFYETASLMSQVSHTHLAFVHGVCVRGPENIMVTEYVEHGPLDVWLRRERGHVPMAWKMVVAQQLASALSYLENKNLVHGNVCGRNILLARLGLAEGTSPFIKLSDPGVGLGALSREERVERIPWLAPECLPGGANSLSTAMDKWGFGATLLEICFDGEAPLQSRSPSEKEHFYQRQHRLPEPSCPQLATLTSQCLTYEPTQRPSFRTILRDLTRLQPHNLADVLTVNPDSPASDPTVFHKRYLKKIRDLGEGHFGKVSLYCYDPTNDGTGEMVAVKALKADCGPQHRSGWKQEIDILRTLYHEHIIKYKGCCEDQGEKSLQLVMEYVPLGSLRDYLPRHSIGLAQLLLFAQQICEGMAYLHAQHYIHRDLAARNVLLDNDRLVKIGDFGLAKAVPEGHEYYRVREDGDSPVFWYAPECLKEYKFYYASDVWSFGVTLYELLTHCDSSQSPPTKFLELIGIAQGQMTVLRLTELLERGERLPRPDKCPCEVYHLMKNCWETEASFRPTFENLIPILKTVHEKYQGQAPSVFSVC

PRKCQ = PRKCQ (Homo sapiens, UniProt Q04759); set-up: DiscoveRx KINOMEscan active site-directed competition binding; percent of control kinase bound to immobilised ligand
HIPK3 = HIPK3 (Homo sapiens, UniProt Q9H422); set-up: DiscoveRx KINOMEscan active site-directed competition binding; percent of control kinase bound to immobilised ligand
BRAF(V600E) = BRAF(V600E) (Homo sapiens, UniProt P15056, V600E); set-up: DiscoveRx KINOMEscan active site-directed competition binding; percent of control kinase bound to immobilised ligand
BRAF(V600E), sequence (P15056 whole entry V600E): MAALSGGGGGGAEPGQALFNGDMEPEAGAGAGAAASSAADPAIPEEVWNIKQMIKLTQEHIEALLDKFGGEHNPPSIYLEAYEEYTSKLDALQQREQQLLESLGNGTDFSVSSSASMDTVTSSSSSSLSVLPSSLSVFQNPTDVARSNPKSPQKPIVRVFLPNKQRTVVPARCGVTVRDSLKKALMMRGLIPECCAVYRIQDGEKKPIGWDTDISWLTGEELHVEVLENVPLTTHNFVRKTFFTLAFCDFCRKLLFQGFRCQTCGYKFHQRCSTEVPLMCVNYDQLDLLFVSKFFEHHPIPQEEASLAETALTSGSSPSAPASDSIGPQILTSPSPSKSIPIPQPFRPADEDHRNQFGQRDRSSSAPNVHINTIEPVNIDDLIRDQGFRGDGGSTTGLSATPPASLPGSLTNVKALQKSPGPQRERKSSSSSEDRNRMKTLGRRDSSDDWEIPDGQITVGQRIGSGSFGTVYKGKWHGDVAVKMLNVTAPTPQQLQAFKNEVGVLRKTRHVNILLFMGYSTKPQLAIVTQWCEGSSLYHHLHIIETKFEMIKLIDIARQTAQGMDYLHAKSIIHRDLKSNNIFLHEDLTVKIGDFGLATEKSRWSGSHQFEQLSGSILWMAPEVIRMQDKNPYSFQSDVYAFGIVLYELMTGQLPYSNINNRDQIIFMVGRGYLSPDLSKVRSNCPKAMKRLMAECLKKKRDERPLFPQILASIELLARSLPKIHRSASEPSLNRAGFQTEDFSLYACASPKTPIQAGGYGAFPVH

MAP3K4 = MAP3K4 (Homo sapiens, UniProt Q9Y6R4); set-up: DiscoveRx KINOMEscan active site-directed competition binding; percent of control kinase bound to immobilised ligand
MAP3K4, sequence (Q9Y6R4 whole entry): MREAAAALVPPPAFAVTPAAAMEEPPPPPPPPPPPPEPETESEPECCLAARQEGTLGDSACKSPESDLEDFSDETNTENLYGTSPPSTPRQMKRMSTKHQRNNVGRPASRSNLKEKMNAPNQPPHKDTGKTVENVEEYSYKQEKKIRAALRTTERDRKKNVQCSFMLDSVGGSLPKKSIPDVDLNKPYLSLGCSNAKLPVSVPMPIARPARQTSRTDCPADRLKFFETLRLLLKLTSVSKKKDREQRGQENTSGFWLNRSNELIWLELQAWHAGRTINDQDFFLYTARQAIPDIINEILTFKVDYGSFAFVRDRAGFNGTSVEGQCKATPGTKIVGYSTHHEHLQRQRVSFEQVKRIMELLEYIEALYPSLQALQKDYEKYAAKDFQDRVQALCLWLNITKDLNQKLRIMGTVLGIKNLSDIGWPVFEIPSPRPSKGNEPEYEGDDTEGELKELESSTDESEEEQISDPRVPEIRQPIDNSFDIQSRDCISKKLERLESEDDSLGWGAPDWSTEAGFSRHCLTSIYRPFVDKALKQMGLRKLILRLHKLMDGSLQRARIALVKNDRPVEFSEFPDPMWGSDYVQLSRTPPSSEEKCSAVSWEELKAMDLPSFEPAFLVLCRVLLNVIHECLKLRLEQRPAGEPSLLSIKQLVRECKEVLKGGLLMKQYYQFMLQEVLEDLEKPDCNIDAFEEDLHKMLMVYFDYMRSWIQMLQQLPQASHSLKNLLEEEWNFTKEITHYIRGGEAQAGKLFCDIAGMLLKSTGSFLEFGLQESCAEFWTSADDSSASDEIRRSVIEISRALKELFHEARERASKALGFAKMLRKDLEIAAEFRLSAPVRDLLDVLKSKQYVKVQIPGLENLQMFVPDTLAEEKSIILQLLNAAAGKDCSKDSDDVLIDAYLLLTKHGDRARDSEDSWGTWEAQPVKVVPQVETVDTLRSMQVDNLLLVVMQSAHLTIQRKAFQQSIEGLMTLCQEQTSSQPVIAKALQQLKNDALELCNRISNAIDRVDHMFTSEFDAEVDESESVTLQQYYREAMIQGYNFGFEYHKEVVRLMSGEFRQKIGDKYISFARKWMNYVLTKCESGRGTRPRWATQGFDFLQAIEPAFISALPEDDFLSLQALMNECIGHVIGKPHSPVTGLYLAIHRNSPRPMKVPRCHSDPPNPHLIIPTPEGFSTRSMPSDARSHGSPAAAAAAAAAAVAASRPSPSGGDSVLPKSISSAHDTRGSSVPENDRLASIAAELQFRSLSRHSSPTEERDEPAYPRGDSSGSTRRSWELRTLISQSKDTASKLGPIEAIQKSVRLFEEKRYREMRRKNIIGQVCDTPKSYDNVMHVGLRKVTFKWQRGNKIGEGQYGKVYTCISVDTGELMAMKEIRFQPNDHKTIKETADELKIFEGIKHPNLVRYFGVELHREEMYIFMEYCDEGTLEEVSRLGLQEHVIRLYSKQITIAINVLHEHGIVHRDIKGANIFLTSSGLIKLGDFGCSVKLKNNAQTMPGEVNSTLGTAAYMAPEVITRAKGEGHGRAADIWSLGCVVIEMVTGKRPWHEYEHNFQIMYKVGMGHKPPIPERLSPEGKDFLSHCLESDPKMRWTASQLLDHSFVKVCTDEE

[3] = read-out: Olaparib / %Ctrl @ 10000nM
[4] = read-out: Talazoparib (BMN 673) / %Ctrl @ 10000nM
[5] = read-out: Rucaparib / %Ctrl @ 10000nM, binding competition, % of control
[6] = read-out: Niraparib (MK-4827) / %Ctrl @ 10000nM

percent of control binding at 10 µM (CDK4-cyclinD3; [3]): 95%
percent of control binding at 10 µM (PIK3CA(E545K); [3]): 86%
percent of control binding at 10 µM (CDKL1; [3]): 99%
percent of control binding at 10 µM (PIP5K2C; [3]): 98%
percent of control binding at 10 µM (FLT1; [3]): 99%
percent of control binding at 10 µM (EGFR(G719C); [3]): 98%
percent of control binding at 10 µM (ABL1-nonphosphorylated; [3]): 87%
percent of control binding at 10 µM (MKK7; [3]): 98%
percent of control binding at 10 µM [1, 3]: 76%
percent of control binding at 10 µM (SgK110; [3]): 63%
percent of control binding at 10 µM [2, 3]: 79%
percent of control binding at 10 µM (PRKCQ; [3]): 95%
percent of control binding at 10 µM (HIPK3; [3]): 100%
percent of control binding at 10 µM (BRAF(V600E); [3]): 87%
percent of control binding at 10 µM (MAP3K4; [3]): 100%
SMILES: O=C(c1cc(Cc2n[nH]c(=O)c3ccccc23)ccc1F)N1CCN(C(=O)C2CC2)CC1 [Olaparib]

percent of control binding at 10 µM (CDK4-cyclinD3; [4]): 99%
percent of control binding at 10 µM (PIK3CA(E545K); [4]): 56%
percent of control binding at 10 µM (CDKL1; [4]): 49%
percent of control binding at 10 µM (PIP5K2C; [4]): 100%
percent of control binding at 10 µM (FLT1; [4]): 100%
percent of control binding at 10 µM (EGFR(G719C); [4]): 99%
percent of control binding at 10 µM (ABL1-nonphosphorylated; [4]): 100%
percent of control binding at 10 µM (MKK7; [4]): 100%
percent of control binding at 10 µM [1, 4]: 100%
percent of control binding at 10 µM (SgK110; [4]): 100%
percent of control binding at 10 µM [2, 4]: 84%
percent of control binding at 10 µM (PRKCQ; [4]): 89%
percent of control binding at 10 µM (HIPK3; [4]): 55%
percent of control binding at 10 µM (BRAF(V600E); [4]): 68%
percent of control binding at 10 µM (MAP3K4; [4]): 90%
SMILES: Cn1ncnc1[C@H]1c2n[nH]c(=O)c3cc(F)cc(c23)N[C@@H]1c1ccc(F)cc1 [Talazoparib]

percent of control binding at 10 µM (CDK4-cyclinD3; [5]): 12%
percent of control binding at 10 µM (PIK3CA(E545K); [5]): 79%
percent of control binding at 10 µM (CDKL1; [5]): 84%
percent of control binding at 10 µM (PIP5K2C; [5]): 83%
percent of control binding at 10 µM (FLT1; [5]): 93%
percent of control binding at 10 µM (EGFR(G719C); [5]): 82%
percent of control binding at 10 µM (ABL1-nonphosphorylated; [5]): 82%
percent of control binding at 10 µM (MKK7; [5]): 100%
percent of control binding at 10 µM [1, 5]: 70%
percent of control binding at 10 µM (SgK110; [5]): 63%
percent of control binding at 10 µM [2, 5]: 7.6%
percent of control binding at 10 µM (PRKCQ; [5]): 93%
percent of control binding at 10 µM (HIPK3; [5]): 18%
percent of control binding at 10 µM (BRAF(V600E); [5]): 73%
percent of control binding at 10 µM (MAP3K4; [5]): 100%
SMILES: CNCc1ccc(-c2[nH]c3cc(F)cc4c3c2CCNC4=O)cc1 [Rucaparib]

SMILES: NC(=O)c1cccc2cn(-c3ccc([C@@H]4CCCNC4)cc3)nc12 [Niraparib]
percent of control binding at 10 µM (CDK4-cyclinD3; [6]): 38%
percent of control binding at 10 µM (PIK3CA(E545K); [6]): 95%
percent of control binding at 10 µM (CDKL1; [6]): 94%
percent of control binding at 10 µM (PIP5K2C; [6]): 78%
percent of control binding at 10 µM (FLT1; [6]): 100%
percent of control binding at 10 µM (EGFR(G719C); [6]): 86%
percent of control binding at 10 µM (ABL1-nonphosphorylated; [6]): 94%
percent of control binding at 10 µM (MKK7; [6]): 100%
percent of control binding at 10 µM [1, 6]: 93%
percent of control binding at 10 µM (SgK110; [6]): 84%
percent of control binding at 10 µM [2, 6]: 37%
percent of control binding at 10 µM (PRKCQ; [6]): 73%
percent of control binding at 10 µM (HIPK3; [6]): 2.5%
percent of control binding at 10 µM (BRAF(V600E); [6]): 100%
percent of control binding at 10 µM (MAP3K4; [6]): 94%
